Experimental data as given in ChEMBL document CHEMBL5653615 (J Biol Chem, 2013).

Tests used:
[1] = biological target: T1, Serine/threonine-protein kinase D1 (Homo sapiens) (UniProt Q15139); assay: Inhibition of human PRKD1 at 18.6 nM by HotSpot assay relative to control
T1 sequence (whole entry): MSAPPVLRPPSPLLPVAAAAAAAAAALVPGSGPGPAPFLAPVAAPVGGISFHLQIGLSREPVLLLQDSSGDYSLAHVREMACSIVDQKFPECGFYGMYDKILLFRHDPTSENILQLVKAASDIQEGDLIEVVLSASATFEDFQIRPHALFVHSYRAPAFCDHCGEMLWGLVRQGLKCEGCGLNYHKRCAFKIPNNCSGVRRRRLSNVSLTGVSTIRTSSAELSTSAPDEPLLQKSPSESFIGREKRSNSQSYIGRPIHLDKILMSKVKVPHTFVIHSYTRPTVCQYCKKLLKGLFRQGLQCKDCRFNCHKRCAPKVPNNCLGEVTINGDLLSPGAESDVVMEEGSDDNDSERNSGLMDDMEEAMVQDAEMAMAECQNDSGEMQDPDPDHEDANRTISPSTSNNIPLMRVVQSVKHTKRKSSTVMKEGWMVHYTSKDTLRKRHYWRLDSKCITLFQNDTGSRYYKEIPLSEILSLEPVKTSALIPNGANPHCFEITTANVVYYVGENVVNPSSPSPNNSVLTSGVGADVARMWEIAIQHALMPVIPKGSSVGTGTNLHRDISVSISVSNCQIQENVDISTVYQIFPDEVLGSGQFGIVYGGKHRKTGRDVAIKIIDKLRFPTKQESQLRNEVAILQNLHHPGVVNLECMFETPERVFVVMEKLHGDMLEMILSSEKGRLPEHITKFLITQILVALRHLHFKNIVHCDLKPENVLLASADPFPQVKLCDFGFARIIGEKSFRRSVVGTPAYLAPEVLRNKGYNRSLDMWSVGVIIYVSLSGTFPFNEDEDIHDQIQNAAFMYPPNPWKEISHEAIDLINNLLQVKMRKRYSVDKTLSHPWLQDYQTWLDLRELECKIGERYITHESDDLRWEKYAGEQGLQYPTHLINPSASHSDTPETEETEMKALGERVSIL

[2] = biological target: Interleukin-1 receptor-associated kinase 1 (Homo sapiens) (UniProt P51617); assay: Inhibition of human IRAK1 at 18.6 nM by HotSpot assay relative to control
[3] = biological target: Serine/threonine-protein kinase SIK2 (Homo sapiens) (UniProt Q9H0K1); assay: Inhibition of human SIK2 at 18.6 nM by HotSpot assay relative to control
[4] = biological target: Serine/threonine-protein kinase pim-2 (Homo sapiens) (UniProt Q9P1W9); assay: Inhibition of human PIM2 at 18.6 nM by HotSpot assay relative to control
[5] = biological target: Serine/threonine-protein kinase Nek6 (Homo sapiens) (UniProt Q9HC98); assay: Inhibition of human NEK6 at 18.6 nM by HotSpot assay relative to control
[6] = biological target: Vascular endothelial growth factor receptor 2 (Homo sapiens) (UniProt P35968); assay: Inhibition of human KDR at 18.6 nM by HotSpot assay relative to control
[7] = biological target: Serine/threonine-protein kinase pim-1 (Homo sapiens) (UniProt P11309); assay: Inhibition of human PIM1 at 18.6 nM by HotSpot assay relative to control
[8] = biological target: Serine/threonine-protein kinase PLK1 (Homo sapiens) (UniProt P53350); assay: Inhibition of human PLK1 at 18.6 nM by HotSpot assay relative to control
[9] = biological target: T2, Serine/threonine-protein kinase TAO1 (Homo sapiens) (UniProt Q7L7X3); assay: Inhibition of human TAOK1 at 18.6 nM by HotSpot assay relative to control
T2 sequence (whole entry): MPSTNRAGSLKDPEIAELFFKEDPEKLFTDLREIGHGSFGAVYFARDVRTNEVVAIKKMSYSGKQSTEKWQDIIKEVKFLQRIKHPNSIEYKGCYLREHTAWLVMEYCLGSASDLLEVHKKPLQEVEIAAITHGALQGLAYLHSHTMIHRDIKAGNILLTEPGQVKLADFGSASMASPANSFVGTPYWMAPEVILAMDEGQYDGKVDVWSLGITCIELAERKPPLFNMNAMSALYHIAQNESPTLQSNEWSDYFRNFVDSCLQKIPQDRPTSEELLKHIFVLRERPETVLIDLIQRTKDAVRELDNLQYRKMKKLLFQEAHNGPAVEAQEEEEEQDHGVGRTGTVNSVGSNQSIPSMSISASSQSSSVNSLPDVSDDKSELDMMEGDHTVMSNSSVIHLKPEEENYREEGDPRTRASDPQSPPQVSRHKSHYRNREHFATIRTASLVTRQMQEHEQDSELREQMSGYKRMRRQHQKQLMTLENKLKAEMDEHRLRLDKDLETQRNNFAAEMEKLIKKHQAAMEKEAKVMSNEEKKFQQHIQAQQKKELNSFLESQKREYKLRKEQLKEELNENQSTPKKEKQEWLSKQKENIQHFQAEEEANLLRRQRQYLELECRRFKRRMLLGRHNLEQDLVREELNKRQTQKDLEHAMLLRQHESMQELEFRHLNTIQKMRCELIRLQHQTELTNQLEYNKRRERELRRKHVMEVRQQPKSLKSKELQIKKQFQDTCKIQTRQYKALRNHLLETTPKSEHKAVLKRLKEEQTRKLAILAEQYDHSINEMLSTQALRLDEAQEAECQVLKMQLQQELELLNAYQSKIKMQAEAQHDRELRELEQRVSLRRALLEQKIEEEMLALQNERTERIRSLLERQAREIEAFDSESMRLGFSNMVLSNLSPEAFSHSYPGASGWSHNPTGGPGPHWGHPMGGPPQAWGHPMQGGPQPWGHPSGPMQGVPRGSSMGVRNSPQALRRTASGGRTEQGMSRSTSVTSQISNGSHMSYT

[10] = biological target: Serine/threonine-protein kinase pim-3 (Homo sapiens) (UniProt Q86V86); assay: Inhibition of human PIM3 at 1.82 nM by HotSpot assay relative to control
[11] = biological target: Wee1-like protein kinase (Homo sapiens) (UniProt P30291); assay: Inhibition of human WEE1 at 1.82 nM by HotSpot assay relative to control
[12] = biological target: BDNF/NT-3 growth factors receptor (Homo sapiens) (UniProt Q16620); assay: Inhibition of human TRKB at 1.82 nM by HotSpot assay relative to control
[13] = biological target: Ribosomal protein S6 kinase beta-1 (Homo sapiens) (UniProt P23443); assay: Inhibition of human RPS6KB1 at 1.82 nM by HotSpot assay relative to control
[14] = biological target: CDK9/Cyclin K (Homo sapiens) (UniProt P50750+O75909); assay: Inhibition of human CDK9/cyclin K at 1.82 nM by HotSpot assay relative to control; type: protein-complex assay
[15] = biological target: Protein-tyrosine kinase 6 (Homo sapiens) (UniProt Q13882); assay: Inhibition of human BRK at 1.82 nM by HotSpot assay relative to control
[16] = biological target: Casein kinase I isoform gamma-1 (Homo sapiens) (UniProt Q9HCP0); assay: Inhibition of human CK1g1 at 1.82 nM by HotSpot assay relative to control

Serine/threonine-protein kinase pim-2 (Homo sapiens), sequence (Q9P1W9 whole entry, looked up): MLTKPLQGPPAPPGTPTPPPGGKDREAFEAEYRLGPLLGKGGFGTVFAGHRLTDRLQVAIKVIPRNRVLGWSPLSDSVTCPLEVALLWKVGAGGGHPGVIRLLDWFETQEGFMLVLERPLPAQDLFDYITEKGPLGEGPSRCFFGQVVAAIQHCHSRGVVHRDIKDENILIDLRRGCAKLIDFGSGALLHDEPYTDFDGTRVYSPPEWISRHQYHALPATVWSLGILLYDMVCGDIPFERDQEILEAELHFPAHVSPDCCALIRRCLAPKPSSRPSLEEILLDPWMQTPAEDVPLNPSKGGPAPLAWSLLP
Serine/threonine-protein kinase PLK1 (Homo sapiens), sequence (P53350 whole entry): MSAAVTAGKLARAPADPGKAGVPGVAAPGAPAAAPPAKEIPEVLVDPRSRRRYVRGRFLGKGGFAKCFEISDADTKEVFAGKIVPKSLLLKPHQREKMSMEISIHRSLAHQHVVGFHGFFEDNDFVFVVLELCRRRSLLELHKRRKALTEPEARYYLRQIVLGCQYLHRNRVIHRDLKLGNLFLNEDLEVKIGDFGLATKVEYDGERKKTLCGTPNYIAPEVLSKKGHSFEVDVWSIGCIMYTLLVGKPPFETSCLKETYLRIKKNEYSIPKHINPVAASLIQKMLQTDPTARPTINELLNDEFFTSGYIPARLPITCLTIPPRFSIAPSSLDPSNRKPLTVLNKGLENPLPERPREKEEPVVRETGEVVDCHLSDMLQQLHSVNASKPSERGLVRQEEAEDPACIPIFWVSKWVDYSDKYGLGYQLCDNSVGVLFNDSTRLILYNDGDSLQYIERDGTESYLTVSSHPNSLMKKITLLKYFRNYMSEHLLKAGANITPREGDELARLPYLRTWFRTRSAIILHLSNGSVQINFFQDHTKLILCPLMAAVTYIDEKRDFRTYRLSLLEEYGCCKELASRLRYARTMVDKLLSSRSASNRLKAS
Wee1-like protein kinase (Homo sapiens), sequence (P30291 whole entry, looked up): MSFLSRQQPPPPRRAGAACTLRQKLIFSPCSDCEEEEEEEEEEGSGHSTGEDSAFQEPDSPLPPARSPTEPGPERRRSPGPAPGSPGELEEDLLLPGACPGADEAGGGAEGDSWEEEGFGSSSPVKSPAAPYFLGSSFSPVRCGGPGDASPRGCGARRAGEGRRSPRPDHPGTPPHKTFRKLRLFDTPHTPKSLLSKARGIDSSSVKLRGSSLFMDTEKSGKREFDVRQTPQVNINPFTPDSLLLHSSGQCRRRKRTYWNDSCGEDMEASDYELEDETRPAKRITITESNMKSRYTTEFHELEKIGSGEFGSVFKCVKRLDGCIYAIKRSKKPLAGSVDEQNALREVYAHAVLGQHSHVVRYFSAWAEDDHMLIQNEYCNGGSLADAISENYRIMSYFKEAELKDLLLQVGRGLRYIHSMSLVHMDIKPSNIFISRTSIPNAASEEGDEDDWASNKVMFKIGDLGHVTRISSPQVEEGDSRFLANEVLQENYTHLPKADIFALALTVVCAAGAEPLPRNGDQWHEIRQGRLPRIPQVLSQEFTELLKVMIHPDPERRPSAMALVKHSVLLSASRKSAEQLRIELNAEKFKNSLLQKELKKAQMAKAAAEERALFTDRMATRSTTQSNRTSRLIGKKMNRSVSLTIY
Vascular endothelial growth factor receptor 2 (Homo sapiens), sequence (P35968 whole entry): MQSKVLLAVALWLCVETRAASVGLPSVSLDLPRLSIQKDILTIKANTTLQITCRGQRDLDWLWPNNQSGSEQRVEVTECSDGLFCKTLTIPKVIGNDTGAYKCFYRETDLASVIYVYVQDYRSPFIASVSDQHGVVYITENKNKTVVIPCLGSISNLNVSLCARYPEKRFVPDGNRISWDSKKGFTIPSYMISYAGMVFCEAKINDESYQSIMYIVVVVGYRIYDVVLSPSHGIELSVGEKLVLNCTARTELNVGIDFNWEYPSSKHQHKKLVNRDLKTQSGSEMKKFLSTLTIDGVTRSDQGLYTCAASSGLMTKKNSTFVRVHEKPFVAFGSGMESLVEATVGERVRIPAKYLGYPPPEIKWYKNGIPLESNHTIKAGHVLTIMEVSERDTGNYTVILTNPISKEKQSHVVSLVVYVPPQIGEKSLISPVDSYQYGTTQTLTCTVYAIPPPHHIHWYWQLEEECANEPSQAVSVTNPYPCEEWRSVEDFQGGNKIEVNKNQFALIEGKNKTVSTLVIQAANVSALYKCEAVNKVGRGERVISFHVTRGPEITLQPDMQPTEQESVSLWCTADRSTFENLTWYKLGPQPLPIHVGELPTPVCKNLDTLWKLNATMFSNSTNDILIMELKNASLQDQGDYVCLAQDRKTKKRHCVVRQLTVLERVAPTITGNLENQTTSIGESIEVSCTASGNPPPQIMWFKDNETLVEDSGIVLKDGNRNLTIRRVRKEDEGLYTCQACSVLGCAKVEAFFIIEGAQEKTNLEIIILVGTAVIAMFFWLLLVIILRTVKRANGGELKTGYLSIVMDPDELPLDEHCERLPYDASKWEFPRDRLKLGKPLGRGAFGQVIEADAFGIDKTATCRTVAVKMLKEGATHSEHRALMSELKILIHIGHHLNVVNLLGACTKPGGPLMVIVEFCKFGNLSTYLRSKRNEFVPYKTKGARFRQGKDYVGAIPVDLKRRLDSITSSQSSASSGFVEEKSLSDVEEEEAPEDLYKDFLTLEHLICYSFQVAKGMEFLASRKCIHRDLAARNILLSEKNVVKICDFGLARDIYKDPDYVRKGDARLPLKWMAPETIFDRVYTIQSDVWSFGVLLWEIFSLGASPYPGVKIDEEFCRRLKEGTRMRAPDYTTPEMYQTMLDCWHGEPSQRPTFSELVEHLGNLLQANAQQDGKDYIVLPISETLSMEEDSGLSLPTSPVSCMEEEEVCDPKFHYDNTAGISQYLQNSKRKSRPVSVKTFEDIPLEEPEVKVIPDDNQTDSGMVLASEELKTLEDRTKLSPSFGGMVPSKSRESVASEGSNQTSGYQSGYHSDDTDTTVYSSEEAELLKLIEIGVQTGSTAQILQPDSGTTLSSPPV
Serine/threonine-protein kinase pim-1 (Homo sapiens), sequence (P11309 whole entry, looked up): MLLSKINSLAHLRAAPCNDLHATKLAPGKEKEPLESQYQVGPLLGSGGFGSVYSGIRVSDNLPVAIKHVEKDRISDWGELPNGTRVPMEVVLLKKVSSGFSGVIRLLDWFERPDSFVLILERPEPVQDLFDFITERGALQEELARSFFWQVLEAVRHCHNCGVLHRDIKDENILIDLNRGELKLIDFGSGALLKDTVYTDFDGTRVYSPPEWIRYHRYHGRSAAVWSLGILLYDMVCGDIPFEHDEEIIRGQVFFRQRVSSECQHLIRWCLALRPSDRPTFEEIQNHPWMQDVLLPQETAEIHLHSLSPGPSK
Serine/threonine-protein kinase Nek6 (Homo sapiens), sequence (Q9HC98 whole entry): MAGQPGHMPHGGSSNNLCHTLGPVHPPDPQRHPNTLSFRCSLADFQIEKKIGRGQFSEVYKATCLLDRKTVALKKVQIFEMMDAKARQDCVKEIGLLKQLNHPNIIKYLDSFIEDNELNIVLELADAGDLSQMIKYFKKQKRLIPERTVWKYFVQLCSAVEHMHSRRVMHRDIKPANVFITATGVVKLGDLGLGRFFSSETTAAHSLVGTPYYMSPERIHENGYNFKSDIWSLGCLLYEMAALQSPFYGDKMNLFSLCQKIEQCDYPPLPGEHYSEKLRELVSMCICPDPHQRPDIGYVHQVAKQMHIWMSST
BDNF/NT-3 growth factors receptor (Homo sapiens), sequence (Q16620 32-822 limits assumed): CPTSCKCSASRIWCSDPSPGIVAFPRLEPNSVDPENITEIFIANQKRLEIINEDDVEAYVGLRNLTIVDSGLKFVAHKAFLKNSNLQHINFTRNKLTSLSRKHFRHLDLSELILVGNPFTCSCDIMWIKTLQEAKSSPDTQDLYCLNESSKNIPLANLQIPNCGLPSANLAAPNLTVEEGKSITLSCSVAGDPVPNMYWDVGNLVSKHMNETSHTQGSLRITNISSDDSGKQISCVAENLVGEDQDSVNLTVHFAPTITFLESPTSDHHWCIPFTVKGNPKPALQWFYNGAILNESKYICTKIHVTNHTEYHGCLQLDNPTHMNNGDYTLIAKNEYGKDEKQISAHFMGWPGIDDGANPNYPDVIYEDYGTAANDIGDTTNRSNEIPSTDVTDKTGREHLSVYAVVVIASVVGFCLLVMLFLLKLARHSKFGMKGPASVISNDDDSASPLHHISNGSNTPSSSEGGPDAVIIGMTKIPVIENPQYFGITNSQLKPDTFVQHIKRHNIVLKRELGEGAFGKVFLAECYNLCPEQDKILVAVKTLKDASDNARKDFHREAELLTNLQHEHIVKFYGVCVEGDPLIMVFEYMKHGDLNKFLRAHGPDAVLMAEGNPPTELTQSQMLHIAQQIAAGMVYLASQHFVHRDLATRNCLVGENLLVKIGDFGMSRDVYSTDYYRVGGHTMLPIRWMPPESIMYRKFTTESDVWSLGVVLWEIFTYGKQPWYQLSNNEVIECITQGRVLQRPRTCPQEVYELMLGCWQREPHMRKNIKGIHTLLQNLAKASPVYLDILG

Row | SMILES | inhibition [1] | inhibition [2] | inhibition [3] | inhibition [4] | inhibition [5] | inhibition [6] | inhibition [7] | inhibition [8] | inhibition [9] | inhibition [10] | inhibition [11] | inhibition [12] | inhibition [13] | inhibition [14] | inhibition [15] | inhibition [16]
1 | C[C@]1(O)C[C@@H](c2nc(-c3ccc4ccc(-c5ccccc5)nc4c3)c3c(N)nccn32)C1 | -2.06% | -8.8% | -8.94% | -9.03% | 14.9% | -3.85% | -3.58% | -7.65% | 0.77% |  |  |  |  |  |  | 
2 | C[C@@]1(C(=O)Nc2ccc(F)nc2)CCCN1c1nc(Nc2cc(C3CC3)n[nH]2)c2cccn2n1 |  |  |  |  |  |  |  |  |  | 19.1% | 1.94% | 69.6% | -5.56% | 4.72% | 0.2% | -3.54%
